The test concerns Drosophila melanogaster of LA strain. As to the kind of experiment: Life span and ageing rate, LA strain. It is filed as in vivo. The settings on record: for ALS / Me / LSmax (maximal life span): 0.00001% of medium weight; for LSmax (maximal life span): in days. From the text:
The impact produced by L-Ala-L-Glu-L-Asp-Gly tetrapeptide (SEQ ID NO: 1) on catalase activity, the content of the products of lipid peroxide oxidation (LPO), life span, and the ageing rate were studied in Drosophila melanogaster of LA strain.
One-day old flies were placed in test tubes, 10 individuals of the same sex in each. Every 2 days they were transferred to a fresh medium taking into consideration the number of deceased individuals. The average and maximal life spans were defined. The ageing rate was calculated by the parameters of Gomperz equation.
L-Ala-L-Glu-L-Asp-Gly tetrapeptide (SEQ ID NO: 1) was applied in the larvae of the 3rd age in dose 0.00001% of the culture medium weight, which constituted approximately 0.015 mg/100 ml. Catalase activity was estimated by generally accepted methods in the homogenates of adult 14 days old flies. The experiment was carried out with a subsequent repetition.
Regression and dispersal analyses served as the basic technique of statistic processing. The authenticity of differences was confirmed by the method of minimal relevant diversity.

Residues, ends and D or L forms follow the SMILES beside them.

Take `C[C@H](N)C(=O)N[C@@H](CCC(=O)O)C(=O)N[C@@H](CC(=O)O)C(=O)NCC(=O)O` [L-Ala-L-Glu-L-Asp-Gly tetrapeptide, L-alanyl-L-glutamyl-L-aspartyl-glycine] (H-AEDG-OH): under “both sexes”, the “LSmax without taking into consideration intersexual distinctions” value is “notably extended”. Under “females”, the “G 10^2 (parameter of Gomperz equation)” value was 4.3 ± 0.90 days^−1; the “LnR0 (parameter of Gomperz equation)” value is -3.806 ± 0.2580 day⁻¹; the MRDT is reported as 3.8; the “Type of geroprotector (survival rate curves and Gomperz charts)” value was “geroprotector of the 1st type”. Under “females”, the ALS is given as 20 ± 1.3 days, the Me was found to be 17 days and the “LSmax (maximal life span)” value turned out to be 44 ± 1.9. For the same compound, where the note is “males”, the “G 10^2 (parameter of Gomperz equation)” value stood at 10.9 ± 3.45 days^−1; the “LnR0 (parameter of Gomperz equation)” value is reported as −5.496 ± 0.711 days^1; the MRDT was found to be 2.9; the “Type of geroprotector (survival rate curves and Gomperz charts)” value was “geroprotector of the 3rd type”. Also, where the note is “males”, the ALS was determined as 24 ± 0.96 days, the Me worked out at 28.5 days and the “LSmax (maximal life span)” value worked out at 33 ± 0.9.

These data come from patent publication US6727227B1, “Tetrapetide revealing geroprotective effect, pharmacological substance on its basis, and the method of its application” (Obschestvo S Ogranichennoi Otvetstven-Nostiju “Klinika …, priority 2002, dated 2004).
